Patent US8354455B2, “Prodrugs containing novel bio-cleavable linkers” (Piramal Enterprises Limited and Apparao Satyam, priority 2004, dated 2013)
Entries after “also recorded” stand apart in the source; their conditions may differ. Like-named read-outs stand apart in the source and are kept apart here. Marks after values point to notes of the source that are not given here.

Key:
convulsant metrazol [1] = test: scMET, rats p.o. (Test 3); assay type: in vivo; settings: Test 3, rats p.o.
Method: Subcutaneous Metrazol Seizure Threshold Test (scMET): Subcutaneous injection of the convulsant metrazol produces clonic seizures in laboratory animals. […] Animals were pretreated with various doses of the test compound given by i.p. injection. At the previously determined Time to Peak Effect (TPE) of the test compound, the dose of metrazol which will produce convulsions in 97% of animals (CD97: 85 mg/kg in mice) was injected into a loose fold of skin in the midline of the neck. The animals were placed in isolation cages to minimize stress and observed for the next 30 minutes for the presence or absence of a seizure. An episode of clonic spasms, approximately […], of the fore and/or hind limbs, jaws, or vibrissae is taken as the end point.
Rats received test compounds orally.

convulsant metrazol [2] = test: Subcutaneous Metrazol Seizure Threshold Test (scMET), Test 1, mice i.p.; assay type: in vivo; settings: for minimal effective dose: Mus musculus, ip; for minimal effective dose / ScMET 0.5 h / ScMET 4.0 h: symbol = dose with activity; for ScMET 0.5 h / ScMET 4.0 h: mice, i.p.
rats = test: Neurotoxicity, rats p.o. (Test 2 and Test 3)
From the text: Acute Toxicity—Minimal Motor Impairment (MMI): To assess a compound's undesirable side effects (toxicity), animals were monitored for overt signs of impaired neurological or muscular function.
Groups of at least 8 rats received various doses of the candidate compound until at least two points were established between the limits of 100 percent protection or toxicity and zero percent protection or minimal toxicity. The 95 percent confidence limits, slopes of the regression lines and standard errors of the slopes were calculated for each quantitative determination. Rats received test compounds orally.
This secondary evaluation determines the time to peak effect (TPE), neurotoxicity, median effective dose (ED50) and biological response.

MES-induced seizures [3] = test: animal or person; assay type: in vivo, rats
MES-induced seizures [4] = test: Maximal Electroshock Test (MES), Test 1, mice i.p.; assay type: in vivo; settings: for activity in MES model (in words): Test 1, mice i.p.; for MES, at 2 hours after dosing: 2 h (footnote h; printed in 4.0 h column)
mice = settings: for toxicity (in words): Test 1, mice i.p.; for Rotorod Toxicity 0.5 h / Rotorod Toxicity 4.0 h: mice, i.p., symbol = dose with toxicity
[5] = 0.5 h, read-out: ScMET 0.5 h, mice, i.p., 0.5 h
[6] = 4 h, read-out: ScMET 4.0 h, mice, i.p., 4.0 h
[7] = Test 2, rats p.o., 30 mg/kg, 0.50 h
[8] = Test 2, rats p.o., 30 mg/kg, 1.00 h
[9] = Test 2, rats p.o., 30 mg/kg, 2.00 h
[10] = Test 2, rats p.o., 30 mg/kg, 4.00 h
[11] = mice, i.p., 4.0 h, 300 mg/kg (+)
[12] = Test 2, rats p.o., 150 mg/kg, 4.00 h
[13] = Test 2, rats p.o., 150 mg/kg, 6.00 h
[14] = Test 2, rats p.o., 150 mg/kg, 8.00 h
[15] = mice, i.p., 0.5 h, symbol = dose with activity
[16] = mice, i.p., 4.0 h, symbol = dose with activity

Structure (SMILES): Nc1nc(NC(=O)OCCSSCCO)nnc1-c1cccc(Cl)c1Cl [I-A1-PD4]
- ScMET (50 mg/kg) (number of animal protected/number of animal tested) (convulsant metrazol [1]; 0.25 h): 1/4^f
- ScMET (50 mg/kg) (number of animal protected/number of animal tested) (convulsant metrazol [1]; 0.5 h): 0/4
- ScMET (50 mg/kg) (number of animal protected/number of animal tested) (convulsant metrazol [1]; 1.0 h): 2/4
- ScMET (50 mg/kg) (number of animal protected/number of animal tested) (convulsant metrazol [1]; 2.0 h): 1/4^g
- ScMET (50 mg/kg) (number of animal protected/number of animal tested) (convulsant metrazol [1]; 4.0 h): 0/4
- minimal effective dose (convulsant metrazol [2]; [5]): > 300 mg/kg
- minimal effective dose (convulsant metrazol [2]; [6]): > 300 mg/kg
- Toxicity (number of animals exhibiting toxicity/number of animals tested) (rats; [7]): 0/4
- Toxicity (number of animals exhibiting toxicity/number of animals tested) (rats; [8]): 0/4
- Toxicity (number of animals exhibiting toxicity/number of animals tested) (rats; [9]): 0/4
- Toxicity (number of animals exhibiting toxicity/number of animals tested) (rats; [10]): 0/4
- Toxicity (number of animals exhibiting toxicity/number of animals tested) (rats; Test 3, rats p.o., 100 mg/kg, 0.25 h): 0/4 (100)
- Toxicity (number of animals exhibiting toxicity/number of animals tested) (rats; Test 3, rats p.o., 100 mg/kg, 0.5 h): 0/4 (100)
- Toxicity (number of animals exhibiting toxicity/number of animals tested) (rats; Test 3, rats p.o., 100 mg/kg, 1.0 h): 0/4 (100)
- Toxicity (number of animals exhibiting toxicity/number of animals tested) (rats; Test 3, rats p.o., 100 mg/kg, 2.0 h): 0/4 (100)
- ED50 (MES-induced seizures [3]; Rattus norvegicus, po, MES model, rats p.o., at time of peak effect): 6.55 mg/kg
- MES (number of animal protected/number of animal tested) (MES-induced seizures [3]; [7]): 0/4
- MES (number of animal protected/number of animal tested) (MES-induced seizures [3]; [8]): 1/4
- MES (number of animal protected/number of animal tested) (MES-induced seizures [3]; [9]): 3/4
- MES (number of animal protected/number of animal tested) (MES-induced seizures [3]; [10]): 4/4
- MES (number of animal protected/number of animal tested) (MES-induced seizures [3]; Test 3 ED50 quantification, rats p.o., 4 h, 1.9 mg/kg): 0/8
- MES (number of animal protected/number of animal tested) (MES-induced seizures [3]; Test 3 ED50 quantification, rats p.o., 4 h, 3.8 mg/kg): 4/8
- MES (number of animal protected/number of animal tested) (MES-induced seizures [3]; Test 3 ED50 quantification, rats p.o., 4 h, 7.5 mg/kg): 4/8
- MES (number of animal protected/number of animal tested) (MES-induced seizures [3]; Test 3 ED50 quantification, rats p.o., 4 h, 15 mg/kg): 7/8
- MES (number of animal protected/number of animal tested) (MES-induced seizures [3]; Test 3 ED50 quantification, rats p.o., 4 h, 30 mg/kg): 7/8
- MES (number of animal protected/number of animal tested) (MES-induced seizures [3]; Test 3 time to peak effect, rats p.o., 10 mg/kg, 4.0 h): 4/4
- MES (number of animal protected/number of animal tested) (MES-induced seizures [3]; Test 3 time to peak effect, rats p.o., 10 mg/kg, 6.0 h): 3/4
- MES (number of animal protected/number of animal tested) (MES-induced seizures [3]; Test 3 time to peak effect, rats p.o., 10 mg/kg, 8.0 h): 2/4
- MES (number of animal protected/number of animal tested) (MES-induced seizures [3]; Test 3 time to peak effect, rats p.o., 10 mg/kg, 24 h): 0/4
- MES (number of animal protected/number of animal tested) (MES-induced seizures [3]; Test 3 time to peak effect, rats p.o., 30 mg/kg, 0.25 h): 2/4
- MES (number of animal protected/number of animal tested) (MES-induced seizures [3]; Test 3 time to peak effect, rats p.o., 30 mg/kg, 0.5 h): 2/4
- MES (number of animal protected/number of animal tested) (MES-induced seizures [3]; Test 3 time to peak effect, rats p.o., 30 mg/kg, 1.0 h): 2/4
- MES (number of animal protected/number of animal tested) (MES-induced seizures [3]; Test 3 time to peak effect, rats p.o., 30 mg/kg, 2.0 h): 2/4
- MES (number of animal protected/number of animal tested) (MES-induced seizures [3]; Test 3 time to peak effect, rats p.o., 30 mg/kg, 4.0 h): 4/4
- activity in MES model (in words) (MES-induced seizures [4]): active in MES
- MES (number of animal protected/number of animal tested) (MES-induced seizures [4]; mice, i.p., 0.5 h, 100 mg/kg (++)): (1/7)
- MES (number of animal protected/number of animal tested) (MES-induced seizures [4]; mice, i.p., 0.5 h, 300 mg/kg (+)): (2/5)
- MES (number of animal protected/number of animal tested) (MES-induced seizures [4]; mice, i.p., 4.0 h, 30 mg/kg (+++)): (1/1)
- MES (number of animal protected/number of animal tested) (MES-induced seizures [4]; mice, i.p., 4.0 h, 100 mg/kg (++)): (3/3)
- MES (number of animal protected/number of animal tested) (MES-induced seizures [4]; [11]): (1/1)
- toxicity (in words) (mice): no or mild toxicity
- Rotorod Toxicity 0.5 h (mice): — (— = no activity or no toxicity at 300 mg/kg)
- Rotorod Toxicity 4.0 h (mice): — (— = no activity or no toxicity at 300 mg/kg)

Structure (SMILES): Nc1nc(NC(=O)OCCSSCCOC(=O)NCC2(CC(=O)O)CCCCC2)nnc1-c1cccc(Cl)c1Cl [I-AA-MPD11]
- minimal effective dose (convulsant metrazol [2]; [5]): > 300 mg/kg
- minimal effective dose (convulsant metrazol [2]; [6]): > 300 mg/kg
- Toxicity (number of animals exhibiting toxicity/number of animals tested) (rats; [8]): 0/4
- Toxicity (number of animals exhibiting toxicity/number of animals tested) (rats; [9]): 0/4
- Toxicity (number of animals exhibiting toxicity/number of animals tested) (rats; [10]): 0/4
- minimal effective dose (MES-induced seizures [4]; Mus musculus, ip, 0.5 h, read-out: MES 0.5 h, mice, i.p., 0.5 h, symbol = dose with activity): > 300 mg/kg
- activity in MES model (in words) (MES-induced seizures [4]): active in MES
- MES (number of animal protected/number of animal tested) (MES-induced seizures [4]; [11]): (1/1)
- toxicity (in words) (mice): no or mild toxicity
- Rotorod Toxicity 4.0 h (mice): — (— = no activity or no toxicity at 300 mg/kg)

Structure (SMILES): CCCC(CCC)C(=O)OCCSSCCOC(=O)Nc1nnc(-c2cccc(Cl)c2Cl)c(N)n1 [I-CA-MPD23]
- ScMET 0.5 h (convulsant metrazol [2]; 0.5 h): — (— = no activity or no toxicity at 300 mg/kg)
- ScMET 4.0 h (convulsant metrazol [2]): — (— = no activity or no toxicity at 300 mg/kg)
- Toxicity (number of animals exhibiting toxicity/number of animals tested) (rats; Test 2, rats p.o., 150 mg/kg, 2.00 h): 0/4
- Toxicity (number of animals exhibiting toxicity/number of animals tested) (rats; [12]): 0/4
- Toxicity (number of animals exhibiting toxicity/number of animals tested) (rats; [13]): 0/4
- Toxicity (number of animals exhibiting toxicity/number of animals tested) (rats; [14]): 0/4
- MES (number of animal protected/number of animal tested) (MES-induced seizures [3]; [12]): 4/4
- MES (number of animal protected/number of animal tested) (MES-induced seizures [3]; [13]): 4/4
- MES (number of animal protected/number of animal tested) (MES-induced seizures [3]; [14]): 4/4
- activity in MES model (in words) (MES-induced seizures [4]): active in MES
- MES 0.5 h (MES-induced seizures [4]; [15]): — (— = no activity or no toxicity at 300 mg/kg)
- MES, at 2 hours after dosing (MES-induced seizures [4]; mice, i.p.): ++ (++ = activity or toxicity at 100 mg/kg)
- MES (number of animal protected/number of animal tested) (MES-induced seizures [4]; [11]): (1/3)
- MES 4.0 h (MES-induced seizures [4]; [16]): + (+ = activity or toxicity at 300 mg/kg)
- toxicity (in words) (mice): no or mild toxicity

Structure (SMILES): Nc1nc(NC(=O)OCCSSCCOC(=O)c2cccnc2)nnc1-c1cccc(Cl)c1Cl [I-CA-MPD24]
- activity in scMET model (in words) (convulsant metrazol [2]; Test 1, mice i.p.): active
- ScMET 0.5 h (convulsant metrazol [2]; 0.5 h): — (— = no activity or no toxicity at 300 mg/kg)
- Toxicity (number of animals exhibiting toxicity/number of animals tested) (rats; [7]): 0/4
- Toxicity (number of animals exhibiting toxicity/number of animals tested) (rats; [8]): 0/4
- Toxicity (number of animals exhibiting toxicity/number of animals tested) (rats; [9]): 0/4
- Toxicity (number of animals exhibiting toxicity/number of animals tested) (rats; [10]): 0/4
- activity in MES model (in words) (MES-induced seizures [4]): active in MES
- MES 0.5 h (MES-induced seizures [4]; [15]): — (— = no activity or no toxicity at 300 mg/kg)
- MES, at 2 hours after dosing (MES-induced seizures [4]; mice, i.p.): ++ (++ = activity or toxicity at 100 mg/kg)
- MES (number of animal protected/number of animal tested) (MES-induced seizures [4]; mice, i.p., 2 h after dosing, 100 mg/kg (++)): (3/3)^h
- MES 4.0 h (MES-induced seizures [4]; [16]): ++ (++ = activity or toxicity at 100 mg/kg)
- MES, at 6 hours after dosing (MES-induced seizures [4]; mice, i.p., 6 h (footnotes g, m; printed in 4.0 h column)): ++ (++ = activity or toxicity at 100 mg/kg)
- MES (number of animal protected/number of animal tested) (MES-induced seizures [4]; mice, i.p., 6 h after dosing, 100 mg/kg (++)): (3/3)^m
- toxicity (in words) (mice): non-toxic; also recorded: no or mild toxicity
- Rotorod Toxicity 0.5 h (mice): — (— = no activity or no toxicity at 300 mg/kg)
- Rotorod Toxicity 4.0 h (mice): — (— = no activity or no toxicity at 300 mg/kg)

Structure (SMILES): Cl.Nc1nc(NC(=O)OCCSSCCNC(=O)c2cccnc2)nnc1-c1cccc(Cl)c1Cl [I-CA-MPD25]
- ScMET 0.5 h (convulsant metrazol [2]; 0.5 h): — (— = no activity or no toxicity at 300 mg/kg)
- ScMET 4.0 h (convulsant metrazol [2]): — (— = no activity or no toxicity at 300 mg/kg)
- Toxicity (number of animals exhibiting toxicity/number of animals tested) (rats; [7]): 0/4
- Toxicity (number of animals exhibiting toxicity/number of animals tested) (rats; [8]): 0/4
- Toxicity (number of animals exhibiting toxicity/number of animals tested) (rats; [9]): 0/4
- Toxicity (number of animals exhibiting toxicity/number of animals tested) (rats; [10]): 0/4
- activity in MES model (in words) (MES-induced seizures [4]): active in MES
- MES (number of animal protected/number of animal tested) (MES-induced seizures [4]; [11]): (1/1)
- toxicity (in words) (mice): no or mild toxicity
- Rotorod Toxicity 0.5 h (mice): — (— = no activity or no toxicity at 300 mg/kg)
- Rotorod Toxicity 4.0 h (mice): — (— = no activity or no toxicity at 300 mg/kg)
